Test system: citrulline-containing peptides / affinity-purified ACPA IgG
Experiment: ELISA cross-reaction of affinity-purified ACPA IgG fractions with Cit-peptides
Type: binding, human
Details: ACPA 0.1 mg/mL, OD ratio Cit/Arg peptide
From the text: To see if the affinity-purified anti-peptide antibodies were able to recognize a different peptide, ELISA plates were coated with the individual peptides directly (fibrin, enolase, and EBNA-2) or indirectly, using neutravidin-coated plates and biotinylated peptides (filaggrin, collagen II, or vimentin) and the binding of the affinity-purified IgG fractions was monitored (Figure 2).
Figure 2 Reactivity of affinity-purified IgG fractions with the relevant and irrelevant citrulline-containing peptides. OD ratios that are OD with Cit/OD with Arg-containing peptides are shown. Cut-off values for each Cit- and Arg-containing peptide pair were calculated from OD indexes of 120 healthy samples (the means of OD indexes + 2 × SD). These were below 1.5 for all peptides. Results of a typical experiment.
ELISA was used to determine serum IgG ACPA concentrations and to test ACPA cross-reactions. The biotinylated, citrulline- or arginine-containing filaggrin19, vimentin, collagen II and the multi-epitope peptides were added at 1 µg/mL to the Medisorp plates (Greiner Bio-One GmbH, Kremsmünster, Germany) pre-coated with 5 µg/mL Neutravidin (Pierce Biotechnology, Rockford, IL, USA) overnight, at 4 °C, and then the plates were incubated for 1 h at 37 °C. […]
Serum samples were diluted 1:100. […] Plates were read at 450 nm with THERMO Multiscan EX ELISA-reader.

Substance: H-Ttds-AXAXGSGSGXGXG-NH2 [multi-epitope, novel peptide consisting of two-two copies of Ala-Cit and Cit-Gly motifs separated with a neutral spacer, SGSG]
- binding of peptide to other affinity-purified ACPA IgG: bound to almost all other ACPA IgG, fibrin β was the exception
